Earlier results, collected in patent US20240009323A1, “METHODS OF TREATING COLON CANCER USING NANOPARTICLE MTOR INHIBITOR COMBINATION THERAPY” (Abraxis BioScience, LLC, priority 2017, published 2024).

Tests used:
[1] = in vivo

COc1ccc(COc2cc3oc(=O)c4cc(C(C)O)ccc4c3cc2OC)cc1 (centres unmarked) [Palomid 529]
brain penetration [1]: good brain penetration
affinity for ABCB1/ABCG2 (ABCB1/ABCG2): lacks affinity
